Laboratory results taken from the NIST ThermoML archive (doi:10.1021/je200457q).

How the values were obtained:
[1] = excess molar enthalpy (molar enthalpy of mixing); xn = mol fraction of the nth substance listed; settings: 101 kPa, Liquid, Flow calorimetry
[2] = 298.15 K; 101.33 kPa; Liquid; Vibrating tube method

C=CC(C)(O)CCC=C(C)C (stereo not given) [3,7-dimethyl-1,6-octadien-3-ol] + CC(C)O
excess molar enthalpy [kcal/mol], [1]
Settings | 283.15 K | 298.15 K | 313.15 K | 328.15 K
x1 = 0.024 | -0.00789 | -0.00741 | -0.00574 | -0.00191
x1 = 0.048 | -0.011 | -0.0117 | -0.00908 | -0.00239
x1 = 0.097 | -0.0141 | -0.0148 | -0.0115 | -0.000717
x1 = 0.195 | -0.0174 | -0.0174 | -0.0108 | 0.00621
x1 = 0.292 | -0.0186 | -0.0172 | -0.00837 | 0.0131
x1 = 0.392 | -0.0196 | -0.0163 | -0.0055 | 0.0184
x1 = 0.49 | -0.0196 | -0.0134 | -0.00167 | 0.0215
x1 = 0.592 | -0.0174 | -0.00884 | 0.00191 | 0.022
x1 = 0.693 | -0.012 | -0.00287 | 0.00478 | 0.0184
x1 = 0.796 | -0.00454 | 0.00143 | 0.00454 | 0.0131
x1 = 0.894 | 0.000717 | 0.00215 | 0.00167 | 0.00574
x1 = 0.948 | 0.000478 | 0.000717 | 0.000717 | 0.00263

CCO [ethanol]
Settings | mass density [kg/m3]
[2] | 785.46

CCCCO [butan-1-ol]
Settings | mass density [kg/m3]
[2] | 805.71

CCCO [propan-1-ol]
Settings | mass density [kg/m3]
[2] | 799.56

C=CC(C)(O)CCC=C(C)C (stereo not given) [3,7-dimethyl-1,6-octadien-3-ol] + CCCO
excess molar enthalpy [kcal/mol], [1]
Settings | 283.15 K | 298.15 K | 313.15 K | 328.15 K
x1 = 0.048 | -0.0404 | -0.0392 | -0.0428 | -0.0411
x1 = 0.096 | -0.0772 | -0.0786 | -0.0786 | -0.0698
x1 = 0.188 | -0.13 | -0.136 | -0.134 | -0.112
x1 = 0.29 | -0.153 | -0.167 | -0.162 | -0.131
x1 = 0.383 | -0.154 | -0.168 | -0.161 | -0.132
x1 = 0.491 | -0.142 | -0.148 | -0.142 | -0.119
x1 = 0.584 | -0.121 | -0.124 | -0.123 | -0.0997
x1 = 0.693 | -0.0884 | -0.0908 | -0.0937 | -0.0777
x1 = 0.794 | -0.0588 | -0.0614 | -0.0686 | -0.0574
x1 = 0.894 | -0.027 | -0.0311 | -0.0356 | -0.0304
x1 = 0.945 | -0.0139 | -0.0163 | -0.0191 | -0.0165
